Patent US20120046329A1, “MODULATORS OF NOD1 AND NOD2 SIGNALING, METHODS OF IDENTIFYING MODULATORS OF NOD1 AND NOD2 SIGNALING, AND USES THEREOF” (Sanford-Burnham Medical Research Institute, priority 2010, published 2012)
Like-named read-outs stand apart in the source and are kept apart here.

Experiments:
[1] = test system: Fa2N-4 immortalized human hepatocytes; test: Toxicity towards Fa2N-4 immortalized human hepatocytes; assay type: cell-based
[2] = test system: interferon response stimuli (RIG-I/MDA-5, IRF3); test: ISRE-driven luciferase reporter in HEK293T, poly(I:C), poly(dA:dT), Sendai virus; conditions: 5 μM
[3] = Plasma stability, mouse; assay type: in vitro ADME
[4] = In vivo RACE assay (pharmacokinetics, IP dosing); set-up: species or system wild type mice; conditions: mice
Source text: In vivo RACE assay data was obtained for compound 1:
in conjunction with quantitative bioanalytical analysis to test its pharmacokinetics in wild type mice. […]

[5] = molecular target: T1, TLR9 (Homo sapiens, UniProt Q9NR96); test: NF-κB luciferase in 697 pre-B leukemia cells, TLR9 ligand CpG DNA; conditions: 697 cells, 10 μM
T1 sequence (Q9NR96 26-1032): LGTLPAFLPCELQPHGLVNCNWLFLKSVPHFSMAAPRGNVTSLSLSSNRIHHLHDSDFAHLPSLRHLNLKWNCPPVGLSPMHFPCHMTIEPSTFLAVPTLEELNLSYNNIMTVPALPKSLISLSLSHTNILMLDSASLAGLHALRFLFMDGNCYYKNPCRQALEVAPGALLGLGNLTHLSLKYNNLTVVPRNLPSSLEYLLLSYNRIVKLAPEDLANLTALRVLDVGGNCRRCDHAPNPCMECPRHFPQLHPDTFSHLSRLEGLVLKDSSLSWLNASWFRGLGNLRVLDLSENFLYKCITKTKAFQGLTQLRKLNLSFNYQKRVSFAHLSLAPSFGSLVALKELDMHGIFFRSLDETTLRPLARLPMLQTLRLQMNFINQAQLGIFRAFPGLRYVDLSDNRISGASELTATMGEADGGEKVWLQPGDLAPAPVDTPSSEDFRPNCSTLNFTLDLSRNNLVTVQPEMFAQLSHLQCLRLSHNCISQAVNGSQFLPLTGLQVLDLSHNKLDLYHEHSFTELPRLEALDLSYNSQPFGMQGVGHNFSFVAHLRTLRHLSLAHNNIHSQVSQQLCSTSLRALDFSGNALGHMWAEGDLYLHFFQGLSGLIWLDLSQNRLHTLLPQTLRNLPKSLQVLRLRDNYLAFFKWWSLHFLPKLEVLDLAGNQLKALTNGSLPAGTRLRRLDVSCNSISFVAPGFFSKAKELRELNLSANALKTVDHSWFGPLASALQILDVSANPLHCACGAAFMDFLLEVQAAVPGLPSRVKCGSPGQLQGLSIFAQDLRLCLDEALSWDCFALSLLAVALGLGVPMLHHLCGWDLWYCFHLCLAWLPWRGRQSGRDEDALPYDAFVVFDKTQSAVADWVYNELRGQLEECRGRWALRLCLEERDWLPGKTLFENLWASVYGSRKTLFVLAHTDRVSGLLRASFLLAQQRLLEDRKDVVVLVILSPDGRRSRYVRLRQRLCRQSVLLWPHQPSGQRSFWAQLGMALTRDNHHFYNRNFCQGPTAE
Procedure: Luciferase activity was measured 24 h later (mean±SD; n=3).
Gene reporter assays: HEK293T or 697 cells containing integrated 5×NFκB-driven luciferase reporter gene were seeded into 96-well plates at 10^4 to 10^5 cells per well, and treated with respective inducers for 16 to 24 hours. […] The next day, cells were transfected with 50 ng pNF-κB-LUC (Clontech) and 5 ng Renilla luciferase gene driven by a constitutive TK promoter (pRL-TK; Promega) along with indicated plasmids. After 24 h of transfection in some experiments, cells were stimulated with various agents for 24 h or directly lysed and luciferase activities were assayed using the Dual Luciferase kit (Promega). The results for firefly luciferase activity were normalized to renilla luciferase activity. […] The mean results were obtained from triplicates.

[6] = test system: TNF-α induced NF-κB; test: TNF-α-induced NF-κB luciferase reporter counterscreen, HEK293T; assay type: cell-based, human
[7] = Microsomal stability, human; assay type: in vitro ADME
[8] = molecular target: T2, NOD1 (Homo sapiens, UniProt Q9Y239); test: γ-tri-DAP-induced IkBα mRNA expression; assay type: cell-based
T2 sequence (Q9Y239 1-953): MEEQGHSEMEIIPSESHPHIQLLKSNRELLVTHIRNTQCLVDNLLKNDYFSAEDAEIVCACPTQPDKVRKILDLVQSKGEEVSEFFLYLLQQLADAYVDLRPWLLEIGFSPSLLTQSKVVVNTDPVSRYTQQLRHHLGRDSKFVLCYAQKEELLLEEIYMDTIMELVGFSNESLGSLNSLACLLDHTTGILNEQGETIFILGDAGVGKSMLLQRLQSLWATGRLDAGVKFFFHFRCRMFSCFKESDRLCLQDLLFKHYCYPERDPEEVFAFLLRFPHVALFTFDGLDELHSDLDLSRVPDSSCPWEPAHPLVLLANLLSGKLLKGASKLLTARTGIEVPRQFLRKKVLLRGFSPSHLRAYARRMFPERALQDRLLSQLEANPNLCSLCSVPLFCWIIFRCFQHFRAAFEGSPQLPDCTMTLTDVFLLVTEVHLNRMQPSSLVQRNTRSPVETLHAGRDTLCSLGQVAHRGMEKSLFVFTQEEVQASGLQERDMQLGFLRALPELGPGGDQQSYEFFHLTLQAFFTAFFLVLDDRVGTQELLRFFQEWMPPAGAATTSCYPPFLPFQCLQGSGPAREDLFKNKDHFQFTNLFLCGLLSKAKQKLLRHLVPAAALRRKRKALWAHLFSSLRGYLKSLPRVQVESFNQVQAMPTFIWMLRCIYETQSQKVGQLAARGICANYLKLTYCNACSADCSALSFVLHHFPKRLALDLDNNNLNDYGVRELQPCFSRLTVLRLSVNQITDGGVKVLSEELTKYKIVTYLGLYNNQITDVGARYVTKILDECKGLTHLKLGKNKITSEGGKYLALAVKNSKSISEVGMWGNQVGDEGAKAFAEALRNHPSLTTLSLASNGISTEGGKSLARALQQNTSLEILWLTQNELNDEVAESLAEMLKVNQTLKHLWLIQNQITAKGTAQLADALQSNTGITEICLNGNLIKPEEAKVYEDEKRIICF
Procedure: RNA analysis: Total RNA was extracted using RNeasy™ Plus Mini kit (Qiagen). After isolation, 1-5 μg total RNA was reverse-transcribed, in the presence of oligo (dT) primer, according to the manufacturer (SuperScript First-Strand Synthesis, Invitrogen). First strand cDNA was diluted and analyzed in triplicates with gene-specific primers by realtime PCR, using a Stratagene Mx3000p sequence detection system with SYBR Green PCR master mix (Applied Biosystems). The gene expression (fold induction) was normalized with the respective levels of beta-actin or cyclophilin (CPH) expression. For TaqMan™-based quantitative PCR, assays were performed using TaqMan™ Gene Expression Master Mix with validated primers and probes (TNF: Hs00174128_ml, IL1B: Hs01555410_ml, IL6: Hs00985639_ml, NOD1: Hs00196075_ml, ACTB: hs999999903_ml) from Applied Biosystems.

[9] = Permeability
[10] = test system: IKKγ/NEMO, MYD88, FLIP, CARD6, APAF1 or NLRC4 over-expression; test: Gene transfection NF-κB luciferase, HEK 293T; assay type: cell-based, human
[11] = Plasma stability, human; assay type: in vitro ADME
[12] = molecular target: NOD2 (Homo sapiens, UniProt Q9HC29); test: MDP-stimulated (NOD2-dependent) NF-κB reporter assay; conditions: reporter cell lines with low and overexpressed NOD2
Chain of NOD2 (Q9HC29 whole entry): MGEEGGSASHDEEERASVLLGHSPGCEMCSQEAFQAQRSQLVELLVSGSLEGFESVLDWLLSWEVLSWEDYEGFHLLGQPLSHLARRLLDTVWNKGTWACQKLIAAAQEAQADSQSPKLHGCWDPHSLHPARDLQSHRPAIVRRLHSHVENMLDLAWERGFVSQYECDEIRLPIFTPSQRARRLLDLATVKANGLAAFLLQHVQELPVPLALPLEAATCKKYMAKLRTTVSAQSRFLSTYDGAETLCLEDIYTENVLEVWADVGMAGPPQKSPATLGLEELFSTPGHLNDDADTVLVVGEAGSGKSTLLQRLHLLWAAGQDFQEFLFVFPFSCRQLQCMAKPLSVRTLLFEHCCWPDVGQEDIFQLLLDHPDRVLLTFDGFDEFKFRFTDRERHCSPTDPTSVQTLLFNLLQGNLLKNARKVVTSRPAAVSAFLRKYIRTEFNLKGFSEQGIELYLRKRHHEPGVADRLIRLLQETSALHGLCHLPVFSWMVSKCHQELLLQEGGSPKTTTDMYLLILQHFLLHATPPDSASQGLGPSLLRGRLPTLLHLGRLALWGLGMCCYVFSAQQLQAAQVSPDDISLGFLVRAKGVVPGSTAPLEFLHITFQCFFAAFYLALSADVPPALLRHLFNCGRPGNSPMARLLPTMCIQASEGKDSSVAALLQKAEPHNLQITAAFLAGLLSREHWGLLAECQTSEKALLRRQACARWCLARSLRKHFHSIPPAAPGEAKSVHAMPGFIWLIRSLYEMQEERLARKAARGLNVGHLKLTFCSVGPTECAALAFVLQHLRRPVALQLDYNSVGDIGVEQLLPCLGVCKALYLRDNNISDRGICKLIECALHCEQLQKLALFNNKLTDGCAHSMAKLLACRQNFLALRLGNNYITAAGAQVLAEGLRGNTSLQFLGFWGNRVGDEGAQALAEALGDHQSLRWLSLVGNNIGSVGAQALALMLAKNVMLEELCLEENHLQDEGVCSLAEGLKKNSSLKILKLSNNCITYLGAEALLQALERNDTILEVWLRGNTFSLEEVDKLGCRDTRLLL

## Cc1ccc(S(=O)(=O)n2c(N)nc3ccccc32)cc1 [Compound 1]
[1]
  Toxicity (LD50, μM): > 50 µM
[1]; listed as MLS-0350096
  Toxicity (LD50, μM): >50 µM
[2]
  Effect on ISRE-driven reporter gene activity induced by other interferon response stimuli: no inhibition
[3]; Mouse, 3 hrs
  Plasma Stability (% Remaining at 3 hrs): 100/100 % Remaining
[3]; mouse
  Stability in plasma (in words): high
[4]; IP
  Tolerability: well tolerated
[4]; IP 15 mg/kg
  Concentration (uM) 20 min: 1.58 ± 0.06 µM
  Concentration (uM) 120 min: 0.12 ± 0.05 µM
[4]; IP 30 mg/kg and 15 mg/kg, T=20 min
  Compound exposure (in words): significant compound exposure
[4]; IP 30 mg/kg
  Concentration (uM) 20 min: 5.24 ± 0.62 µM
  Concentration (uM) 120 min: 0.54 ± 0.04 µM
[5]
  Effect on NF-κB activity induced by TLR9 ligand CpG DNA: did not inhibit
[6]; Homo sapiens, HEK-293T, read-out: TNF-α IC50(μM)
  IC50: > 20 µM
[6]; reporter assay, listed as CID1088438
  Activity on TNFα induced NF-κB (in words): selective
[7]; Human, 1 hr
  Microsomal Stability (% Remaining at 1 hr): 41.78 % Remaining
[7]; human
  Stability in microsomes (in words): moderate
[8]
  γ-tri-DAP-induced expression of IkBα at the mRNA level: inhibited
[9]; pH 5.0
  Permeability: 491 ×10⁻⁶ cm/s
[9]; pH 6.2
  Permeability: 562 ×10⁻⁶ cm/s
[9]; pH 7.4
  Permeability: 382 ×10⁻⁶ cm/s
[9]; three pH levels
  Permeability (in words): high
[10]
  Impact on NF-κB in cells over-expressing IKKγ/NEMO, MYD88, FLIP, CARD6, APAF1 or NLRC4: No significant impact
[11]; Human, 3 hrs
  Plasma Stability (% Remaining at 3 hrs): 100/100 % Remaining
[11]; human
  Stability in plasma (in words): high
[12]
  Inhibition of MDP stimulated (NOD2-dependent) signaling: not inhibiting
